From the METLIN SMRT retention time set (Domingo-Almenara et al. 2019)

Experiment: gradient 5% acetonitrile 3 min, to 50% in 2 min, to 85% in 15 min, held 3 min, 100 µL/min
Details: column: Zorbax Extend-C18 2.1 x 50 mm; eluents: water / acetonitrile, 0.1% formic acid
How it was run: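 The system's dead and dwell volumes were 40 μL and 900 μL, with a Zorbax Extend-C18 column (2.1 × 50 mm, 1.8 μm) run at 100 μL/min in water and acetonitrile containing 0.1% formic acid each. Pure standards were analyzed in mixtures of ~100 molecules by HPLC–quadrupole time-of-flight mass spectrometry in positive and negative ionization mode. Retention time was assigned from computationally picked, manually inspected adduct peaks.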

CCOc1ccc(CNC(=O)C2CCCN(c3nn4c(=O)c5c(nc4s3)CCCC5)C2)cc1 (centres undefined)
RP-LC retention time: 784 s

COc1ccc2c(c1)c(N1CCCC1=O)c(C(=O)NCCc1ccc(OC)c(OC)c1OC)n2C
RP-LC retention time: 858 s

CCN1C(=O)c2cc(S(=O)(=O)Nc3ccc(C)cc3F)ccc2Oc2cccnc21
RP-LC retention time: 1030 s

Cc1nc(C)c(C(=O)N2CCCCCCN(C)C(=O)[C@@H]3CCC[C@@H]32)s1
RP-LC retention time: 728 s

Cc1ccc(C(=O)COc2ccc(N3C(=O)C4CCC(C)CC4C3=O)cc2)cc1C (centres undefined)
RP-LC retention time: 1120 s

CCN(CC)CCNc1ncnc2onc(-c3ccc(F)cc3)c12
RP-LC retention time: 625 s

Cc1ccn2cc(-c3ccc(NC(=O)Nc4cccc(Cl)c4)cc3)nc2n1
RP-LC retention time: 692 s

O=C(Nc1nnc(C2CC(=O)N(c3ccc(Cl)cc3)C2)o1)c1ccccc1F (centres undefined)
RP-LC retention time: 748 s

CC(NC(=O)C1c2ccccc2CCN1C(=O)C1CC1)c1ccc(F)cc1 (centres undefined)
RP-LC retention time: 875 s

Cc1nn(-c2ccc(-c3ccccc3)nn2)c(C)c1S(=O)(=O)NCCC(C)C
RP-LC retention time: 1130 s

Cc1nc(-c2cccnc2)n2c(=O)n(CCc3ccccc3)nc2c1C
RP-LC retention time: 786 s

Cc1cc(C(=O)Nc2nc(-c3ccccc3)cs2)ccc1[N+](=O)[O-]
RP-LC retention time: 1080 s

CCSc1nnc(NC(=O)Cc2cc(-c3ccc4c(c3)CC(C)O4)on2)s1 (centres undefined)
RP-LC retention time: 895 s

Cc1nn(-c2cc(N3CCOCC3)ncn2)c(C)c1CCC(=O)NCc1ccco1
RP-LC retention time: 711 s

CCc1nnc(NC(=O)CSc2nnc(-c3ccc(Cl)cc3)o2)s1
RP-LC retention time: 826 s

Cn1c(=O)c(C(=O)N2CCN(c3ccccn3)CC2)nn(-c2ccccc2)c1=O
RP-LC retention time: 604 s

Cc1cccc(-c2nc(C3CCN(S(=O)(=O)c4ccccc4F)CC3)no2)c1
RP-LC retention time: 1160 s

CCCN1C(=O)C2CCC(=O)N2c2ccc(C(=O)NC(C)(C)CC)cc21 (centres undefined)
RP-LC retention time: 812 s

COCCN1CCC(N2CCN(S(=O)(=O)c3ccccc3Cl)CC2)C1=O (centres undefined)
RP-LC retention time: 567 s

CC1CCN(c2cncnc2-n2cc(NC(=O)NC3CCCCC3)cn2)CC1
RP-LC retention time: 744 s

Cn1c(CCNC(=O)c2cccc(F)c2)nc2cccnc21
RP-LC retention time: 611 s

O=C(c1cccc(Cl)c1)N1CCC(Cc2nnc(-c3ccccc3)o2)CC1
RP-LC retention time: 891 s

Cc1ccc(NC(=O)Cn2cnc3nc(N4CCC(C(=O)NC5CC5)CC4)sc3c2=O)c(F)c1
RP-LC retention time: 655 s

Cn1nccc1C(=O)N1CCC(c2noc(-c3ccccc3)n2)C1 (centres undefined)
RP-LC retention time: 755 s

COc1ccccc1CNC(=O)C1CCN(c2nnc3c(Cl)cccn23)CC1
RP-LC retention time: 700 s

O=C(NCc1ccc(F)cc1)c1ccc2c(c1)CCN2C(=O)C1CC1
RP-LC retention time: 813 s

Cc1cc(Cl)ccc1NC(=O)Cn1cccc1-c1nnc(C2CC2)o1
RP-LC retention time: 904 s

COc1ccc(SCCCC(=O)NCc2ccccc2)cc1
RP-LC retention time: 849 s

COc1ccc(N2CC(c3nc(-c4ccc(Br)cc4)no3)CC2=O)c(OC)c1 (centres undefined)
RP-LC retention time: 1040 s

Cc1ccc(NC(=O)Cc2csc3nc(-c4ccc(C)c(C)c4)cn23)cc1
RP-LC retention time: 884 s

CCc1nc2c(c(=O)n1CC(=O)Nc1cc(C)ccc1C)CN(Cc1ccccc1)CC2
RP-LC retention time: 679 s

Cc1c(C(=O)NC(C)C)cnn1-c1ccc(-c2nc(C(C)(C)C)no2)cn1
RP-LC retention time: 1020 s

CCOC(=O)c1c(NC(=O)C2CCN(S(C)(=O)=O)CC2)sc2ccccc12
RP-LC retention time: 979 s

Cc1ccccc1CNS(=O)(=O)c1c(C)sc(C)c1-c1n[nH]c(C)c1C
RP-LC retention time: 1060 s

Cc1cc2c(c(=O)n(-c3ccccc3)c(=O)n2CC(=O)Nc2cccc(C(C)C)c2)n1C
RP-LC retention time: 975 s

COc1ccc(-c2nnc(N3CCC(C(=O)N4CCC5(CC4)OCCO5)CC3)o2)cc1
RP-LC retention time: 704 s

COc1cccc(-c2n[nH]c3c2C(c2ccc(O)c(OC)c2)NC3=O)c1 (centres undefined)
RP-LC retention time: 634 s

CCOc1ccc(S(=O)(=O)N2CCCC(C(=O)NCc3cccnc3)C2)cc1 (centres undefined)
RP-LC retention time: 650 s

CC(C)CC(=O)Nc1n[nH]c2c1CN(C(=O)C1CCN(C)CC1)C2(C)C
RP-LC retention time: 605 s

O=C(NC(C(=O)N1CCCc2ccccc21)c1ccccc1)c1cnccn1 (centres undefined)
RP-LC retention time: 932 s

COc1cc(C(=O)OC(C)CN2CCOCC2)cc(OC)c1OC (centres undefined)
RP-LC retention time: 662 s

CC(C)CN1CCN(S(=O)(=O)c2ccc(-c3nnc(C4CCC4)o3)o2)CC1
RP-LC retention time: 610 s

O=C1C(c2cccnc2)N(Cc2cccs2)C(=O)CN1c1ccccc1 (centres undefined)
RP-LC retention time: 661 s

Cc1ccc(-c2nc(-c3cccc(-c4ccn[nH]4)c3)no2)cc1C
RP-LC retention time: 1150 s
